For the test, the system named is human PBMC. As to the kind of experiment: Cytokine profile of matrix-embedded, perfused PBMC cultures in device 1 (multiplex bead array). Type of test: cell-based. The protocol:
Cryopreserved human PBMC, isolated from whole blood by ficoll density gradient centrifugation, were revitalised using standard protocols. The cell concentration was adjusted to 3 E8 viable cells per mL in X-Vivo 15 cell culture media (Lonza, Basel, Switzerland) supplemented with 5 mg/mL agarose type VII (made from 50 mg/mL 37° C. liquid solution, Sigma-Aldrich, St. Louis, Mo.), 2.5 μg/mL fibronectin (human, Sigma-Aldrich, St. Louis, Mo.) and 1× penicillin/streptomycin solution (100×, Invitrogen, Carlsbad, Calif.).
The device was made of a 1 mm PC plate housing the culture compartment, feeding and draining canals (see FIGS. 1 and 1A). The plate was covered with a 1 mm PC plate on top were the luer connectors were attached and a gas permeable membrane (Biofoil25, Greiner bio-one, Kremsmünster, Germany) at the bottom of the plate for optimal gas supply of the culture. The culture compartment of this special embodiment of device 1 has a volume of 160 μL. The device was incubated in a humidified incubator (37° C./5% carbon dioxide).
Three culture compartments of the device, further illustrated in FIG. 1A, were filled with cell suspension in liquid agarose media avoiding air bubbles (4,8 E7 viable PBMC/compartment). The whole culture device was cooled down to 4° C. for 5 min in order to let the matrix gel. Subsequently the surrounding fluidic system was prefilled with X-Vivo 15 cell culture media and was applied to the luer connectors of the culture device. A flow rate of 13.1 μL/h was set up using a peristaltic media pump.
Samples were taken every day and immediately frozen down to −20° C. for subsequent cytokine analyses using multiplex bead array technology (Luminex, Austin, Tex.).
After the second sample was taken 24 hours after innoculation, 100 μL OKT-3 antibody (100 ng/mL solution in X-Vivo 15, Ortho Biotech, Bridgewater, N.J.) were administered via an injection site in the fluidic system. 5 days after inoculation the last sample was taken and viability of the cultures was checked with acridine orange (1 μg/mL, Sigma, St. Louis, […].) and ethidium bromide (4 μg/mL, Sigma, St. Louis, […].).
The experiment was conducted as described in example 1. PBMCs were derived from a differed donor and cells were subsequently cultured in RPMI 1640 (Invitrogen, Carlsbad, Calif.) supplemented with 10% FCS (Biochrom, Berlin, Germany) and 1× penicillin/streptomycin solution (100×, Invitrogen, Carlsbad, Calif.). As described previously, the culture compartment of culture device 1 (see FIGS. 1 and 1A) was filled with liquid agarose-media (RPMI 1640 10% FCS cell culture media supplemented with 5 mg/mL agarose type VII (from 50 mg/mL 37° C. liquid solution, Sigma-Aldrich, St. Louis, Mo.), 2.5 μg/mL fibronectin (human, Sigma-Aldrich, St. Louis, Mo.) and 1× penicillin/streptomycin solution (100×, Invitrogen, Carlsbad, Calif.) and cells (4,8 E7 PBMC/compartment). After pre-incubation for 24 hours with a constant perfusion rate of 13.1 μL culture media, 100 μL of a 100 ng/mL OKT-3 solution was administered. Samples were taken every 24 hours and frozen down to −20° C. before the cytokine levels were determined.

Setting [1] is: Example 1, X-Vivo 15 medium, 100 μL of 100 ng/mL OKT-3.
Where [2] appears, read: Example 2, different donor, RPMI 1640 10% FCS, 100 μL of 100 ng/mL OKT-3.

Regarding Muromonab-CD3 [OKT-3], under setting [1], the IFN-gamma release entry is listed as “released”, the IL-5 level entry is on record as “raises initially” and the TNF-alpha release entry is reported as “released”. For the same substance, under “Example 1, X-Vivo 15 medium, 24 hours after administration of 100 μL of 100 ng/mL OKT-3”, the IL-2 release result is listed as “massive IL-2 burst”. In addition, under “Example 1, X-Vivo 15 medium, after 72 hours”, the “IL-2 level after the initial burst” value is “declined”. In addition, under setting [2], the IFN-gamma level result is “only raise slightly”, the IL-2 release entry is “massive IL-2 release”, the IL-5 level entry was “raises initially” and the TNF-alpha level entry is given as “only raise slightly”.

The values are drawn from patent publication US8911995B2, “Culture system and method for immunogenicity and immunofunction testing in vitro” (ProBioGen AG, priority 2007, dated 2014).
